Data published in ChEMBL document CHEMBL1649237, “IND-6, a highly divergent IND-type metallo-beta-lactamase from Chryseobacterium indologenes strain 597 isolated in Burkina Faso” (2009).
Converted amounts (≈) assume the structure as drawn.

Experiments:
Type in all cases: functional
[1] = test system: Escherichia coli; assay: Antimicrobial activity against Escherichia coli DH5alpha harboring plasmid pBC-SK after 18 hrs by broth microdilution method; conditions: DH5[alpha]
[2] = test system: Escherichia coli; assay: Antimicrobial activity against Escherichia coli DH5alpha harboring metallo-beta-lactamase IND-6 after 18 hrs by broth microdilution method; conditions: DH5[alpha]
[3] = test system: Chryseobacterium indologenes; assay: Antimicrobial activity against Chryseobacterium indologenes 597 expressing metallo-beta-lactamase IND-6 after 18 hrs by broth microdilution method; conditions: Chryseobacterium indologenes, 597, 18 h
[4] = test system: Chryseobacterium indologenes; assay: Antimicrobial activity against Chryseobacterium indologenes 597 expressing metallo-beta-lactamase IND-6 after 18 hrs by broth microdilution method in presence of beta-lactamase inhibitor Tazobactam; conditions: Chryseobacterium indologenes, 597, 18 h
[5] = test system: Chryseobacterium indologenes; assay: Antimicrobial activity against Chryseobacterium indologenes 597 expressing metallo-beta-lactamase IND-6 after 18 hrs by broth microdilution method in presence of beta-lactamase inhibitor clavulanic acid; conditions: Chryseobacterium indologenes, 597, 18 h

Row | Compound | MIC [1] | MIC [2] | MIC [3] | MIC [4] | MIC [5]
1 | CO/N=C(\C(=O)N[C@@H]1C(=O)N2C(C(=O)O)=C(CSc3nc(=O)c(O)nn3C)CS[C@H]12)c1csc(N)n1 [CEFTRIAXONE] | 0.03 µg/mL (≈ 0.0541 µM) | 0.12 µg/mL (≈ 0.216 µM) |  |  | 
2 | CO/N=C(\C(=O)N[C@@H]1C(=O)N2C(C(=O)O)=C(COC(C)=O)CS[C@H]12)c1csc(N)n1 [CEFOTAXIME] | 0.12 µg/mL (≈ 0.263 µM) | 0.5 µg/mL (≈ 1.1 µM) | 32 µg/mL (≈ 70.3 µM) |  | 
3 | CC(=O)OCC1=C(C(=O)O)N2C(=O)[C@@H](NC(=O)Cc3cccs3)[C@H]2SC1 [CEPHALOTHIN] | 4 µg/mL (≈ 10.1 µM) | 64 µg/mL (≈ 161 µM) | ≥ 64 µg/mL |  | 
4 | CCN1CCN(C(=O)N[C@@H](C(=O)N[C@@H]2C(=O)N3[C@@H]2SC(C)(C)[C@@H]3C(=O)O)c2ccccc2)C(=O)C1=O [PIPERACILLIN] |  |  | 4 µg/mL (≈ 7.73 µM) | 4 µg/mL | 
5 | CC(C)(O/N=C(\C(=O)N[C@@H]1C(=O)N2C(C(=O)[O-])=C(C[n+]3ccccc3)CS[C@H]12)c1csc(N)n1)C(=O)O [CEFTAZIDIME] | 0.12 µg/mL (≈ 0.22 µM) | 1 µg/mL (≈ 1.83 µM) | 8 µg/mL (≈ 14.6 µM) |  | 
6 | C[C@@H](O)[C@H]1C(=O)N2C(C(=O)O)=C(SCCNC=N)C[C@H]12 [IMIPENEM ANHYDROUS] |  | 1 µg/mL (≈ 3.34 µM) | ≥ 64 µg/mL |  | 
7 | CC1(C)S[C@@H]2[C@H](NC(=O)[C@H](N)c3ccc(O)cc3)C(=O)N2[C@H]1C(=O)O [AMOXICILLIN] |  |  |  |  | ≥ 64 µg/mL
8 | CO/N=C(\C(=O)N[C@@H]1C(=O)N2C(C(=O)O)=C(COC(N)=O)CS[C@H]12)c1ccco1 [CEFUROXIME] | 2 µg/mL (≈ 4.71 µM) | 32 µg/mL (≈ 75.4 µM) | ≥ 64 µg/mL |  | 
9 | CO[C@@]1(NC(=O)Cc2cccs2)C(=O)N2C(C(=O)O)=C(COC(N)=O)CS[C@@H]21 [CEFOXITIN] | 2 µg/mL (≈ 4.68 µM) | 16 µg/mL (≈ 37.4 µM) | 16 µg/mL (≈ 37.4 µM) |  | 
10 | CO/N=C(\C(=O)N[C@@H]1C(=O)N2C(C(=O)[O-])=C(C[N+]3(C)CCCC3)CS[C@H]12)c1csc(N)n1 [CEFEPIME] | 0.03 µg/mL (≈ 0.0624 µM) | 0.12 µg/mL (≈ 0.25 µM) | 1 µg/mL (≈ 2.08 µM) |  | 
11 | CC1(C)S[C@@H]2[C@H](NC(=O)[C@H](C(=O)O)c3ccsc3)C(=O)N2[C@H]1C(=O)O [TICARCILLIN] | 4 µg/mL (≈ 10.4 µM) | 256 µg/mL (≈ 666 µM) |  |  | 
12 | CC1(C)S[C@@H]2[C@H](NC(=O)[C@H](N)c3ccccc3)C(=O)N2[C@H]1C(=O)O [AMPICILLIN] |  | 32 µg/mL (≈ 91.6 µM) | ≥ 64 µg/mL |  | 
13 | CO[C@@]1(NC(=O)C(C(=O)O)c2ccsc2)C(=O)N2[C@@H](C(=O)O)C(C)(C)S[C@@H]21 (stereo partly specified) [TEMOCILLIN] | 4 µg/mL (≈ 9.65 µM) | 16 µg/mL (≈ 38.6 µM) |  |  | 
14 | C[C@@H](O)[C@H]1C(=O)N2C(C(=O)O)=C(S[C@@H]3CN[C@H](C(=O)N(C)C)C3)[C@H](C)[C@H]12 [MEROPENEM] | 0.03 µg/mL (≈ 0.0782 µM) | 0.12 µg/mL (≈ 0.313 µM) | 8 µg/mL (≈ 20.9 µM) |  | 
15 | C[C@H]1[C@H](NC(=O)/C(=N\OC(C)(C)C(=O)O)c2csc(N)n2)C(=O)N1S(=O)(=O)O [AZTREONAM] | 0.25 µg/mL (≈ 0.574 µM) | 0.25 µg/mL (≈ 0.574 µM) |  |  | 
